Data from patent US20110244472A1, “Cancer stem cell immortalization” (priority 2008, published 2011).

Key:
[1] = tested on: Oct3/4-GFP(+) MCF7 cells vs control Oct3/4-GFP(-) MCF cells; assay: Initial small molecule screen in 384 well plates, CellTiter-Blue cell viability; format: cell-based; conditions: 5 μM, 72 hours
Experimental: Experiments were performed to determine whether the growth of Oct3/4-GFP(+) MCF cells could be inhibited with novel small molecules. Oct3/4-GFP(+) MCF7 cells were used as the target population. Control cells consisted of Oct3/4-GFP(−)MCF cells (lacking an Oct3/4-GFP cassette) that were infected with a GFP-expressing lentivirus as a way of controlling for GFP expression. Initial screenings were performed in 384 well plates on triplicate samples as follows.
(§1) First, the cell cultures were prepared by trypsinizing and resuspending the cells in MCF7 culture medium (alpha MEM, 10% FBS, 2 mM Glutamine, 1 mM Sodium Pyruvate, 1 mM non-essential amino acids, 100 U/ml Penicillin/Streptomycin) at a density of 4×10^4/ml. The screen was then performed by (1) diluting compounds to 30 μM using alpha MEM; (2) adding […] of compound-containing solution to each well (which will result in a final concentration of 5 μM); (3) adding 25 μl of cell suspension to each well (1000 cells/well); and (4) incubating the cells with compounds for 72 hours at 37° C., 5% CO2. Cell viability was then assessed using the CellTiter-Blue® assay by Promega, modified as follows. Since there were 30 ul medium in each well, 6 μl CellTiter-Blue was added to each well. The plates were then incubated at 37° C. for 2.5 hours. The plates were then read on a SpectraMax M5 Microplate Reader using the wavelength of excitation 560 nm/emission 590 nm.
(§2) Then, a secondary set of experiments were performed in 12 well plates in which 2000 cells/well were initially seeded and allowed to attach for one day. The following day (day 0), the medium was replaced with fresh medium containing 0.8 μM of each of these three compounds. Cell counts were then performed manually on triplicate wells over a period of three days. Oct3/4-GFP+ MCF7 cells are represented by the lower, dashed curve in all three panels.

Oct3/4-GFP+ MCF7 cells = assay: Secondary growth experiment in 12 well plates, manual cell counts; format: cell-based; conditions: 0.8 μM, cell counts over three days, FIG. 11
Experimental: as §2

[2] = tested on: non-stem cell and Oct3/4-GFP+ CSCs prepared from three breast cancer cell lines, MCF7, MB231 and MB453; assay: LOPAC screen for CSC-specific inhibitory activity; format: cell-based; conditions: CSCs from at least one of MCF7, MB231, MB453; FIG. 14A
Experimental: (§3) FIG. 14A-E. Testing various chemical compounds for CSC-specific inhibitory activity in non-stem MCF7, MDA-MB231 or MDA-MB453 or in Oct3/4-GFP+ CSC cells of those same lines. CSC are denoted by solid circles ([…])_ and non-stem cells are denoted by solid squares (▪).
as §1
(§4) 1280 compounds from the Library of Pharmacologically Active Compounds (“LOPAC”) were screened for activity against non-stem cell and Oct3/4-GFP+ CSCs prepared from three breast cancer cell lines, MCF7, MB231 and MB453 using methods set forth above.

[3] = tested on: MDA-MB231 Oct3/4-GFP+ CSC cells; assay: CSC-specific inhibitory activity test, MDA-MB231; format: cell-based; conditions: 4 μM, FIG. 14B
From the text: as §3, §4

[4] = tested on: MCF7 Oct3/4-GFP+ CSC cells; assay: CSC-specific inhibitory activity test, MCF7; format: cell-based; conditions: 7 nM, FIG. 14C
From the text: as §3, §4

[5] = tested on: MDA-MB453 Oct3/4-GFP+ CSC cells; assay: CSC-specific inhibitory activity test, MDA-MB453; format: cell-based; conditions: 10 nM, FIG. 14D and E
From the text: as §3, §4

[6] = tested on: MCF7 cells and Oct3/4-GFP+MCF7 cells; assay: Hoechst 33342 side population (SP) analysis; format: cell-based; conditions: 20 μM Reserpine; MCF7 and Oct3/4-GFP+MCF7 cells; Hoechst 33342 exclusion
From the text: In other studies, Oct3/4-GFP+MCF7 cells were examined by qRT-PCR for expression of the breast cancer CSC markers CD133 and Oct3/4. After normalizing to GAPDH, the ratios of these transcripts in Oct3/4-GFP+MCF7 cells and non-CSC-MCF7 cells were 6.3 for CD133 and 2.5 for Oct3/4. […] The SP is due to CSCs ability to exclude the dye Hoechst 33342 and reflects high expression of […] transporters such as MDR1 and BRCP (30). […] These fractions could also be reduced by >70% following exposure to 20 μM Reserpine, which inhibits ABC transporters (30). Moreover, the overall mean fluorescence intensity of the entire Oct3/4-GFP+MCF population was two-fold lower than that of the MCF7 population. Thus, based on independent qRT-PCR assessments of CSC gene expression profiles and on uptake/exclusion of Hoechst 33342, one can conclude that the Oct3/4-GFP+MCF7 population consists of highly enriched and stable cells that are unable to differentiate into TACs.

[7] = tested on: MCF7 cells and Oct3/4-GFP+MCF7 CSCs; assay: Differential chemotherapeutic responses, viable adherent cells by trypan blue exclusion; format: cell-based; conditions: number of viable adherent cells over time, triplicate plates
Experimental: FIG. 6. Differential chemotherapeutic responses of MCF7 and Oct3/4-GFP+MCF7 cells. 10^5 unfractionated, MCF7 cells (dotted line) or Oct3/4GFP+MCF7 cells (broken line) were seeded into 6 well plates and allowed to achieve ca. 30-50% confluence. The indicated concentrations of adriamycin, etoposide, 5-fluorouracil, cis-platinum, methotrexate, and taxol were then added (day 0). The total number of viable adherent cells was then determined at the indicated times by trypan blue exclusion. […] Note that in most cases Oct4/4-GFP+MCF7 actually grew in the presence of all agents. These experiments were repeated at least two additional times with similar outcomes.
5. Differential chemosensitivities of Oct3/4-GFP+MCF7 cells. It is believed that CSCs are more resistant to chemotherapeutic agents than TACs, thus at least partly accounting for the propensity of many tumors to relapse after an initial response (12,27,36). To test this idea, MCF7 cells and Oct3/4-GFP+MCF7 CSCs were exposed to six different chemotherapeutic agents commonly employed to treat breast cancer.

topoisomerase I = assay: Doxycycline-induced shRNA knockdown of topoisomerase I expression (mRNA, Western blot); format: cell-based, human; conditions: FIGS. 17 and 18
From the text: FIG. 17. Topoisomerase I expression in topoisomerase I shRNA-treated cells.
FIG. 18. Western blot analysis of topoisomerase I expression in CSC and non-stem cell versions of MCF7, MDA-MB453, BTL12 and MDA-MB231 cells with or without doxycycline-induced (“dox”) shRNA knockdown.
(§5) To test this hypothesis further, small hairpin RNA (shRNA) was used to knockdown topoisomerase I using a conditional shRNA expression system (pTRIPZ vector-Origene, Inc.), in which expression of the shRNA is induced by doxycycline. The shRNA used had the sequence: […] […] (SEQ ID NO:10, NM_003286).

[8] = tested on: non-stem and CSC versions of MCF7, MDA-MB453 and BTL12 cells; assay: Effect of topoisomerase I shRNA knockdown on cultures of non-stem and CSC cells; format: cell-based; conditions: doxycycline-induced, FIG. 20A-C
From the text: FIG. 20A-C. Evaluation of the effect of doxycycline-inducible shRNA targeting topoisomerase I in non-stem MCF7, MDA-MB453 or BTL12 or in Oct3/4-GFP+ CSC cells of those same lines. (A) MCF7. (B) MDA-MB453. (C) BTL12.
as §5

[9] = tested on: tumor xenografts from non-stem and CSC MCF7 cells; assay: Effect of topoisomerase I shRNA knockdown on tumor xenografts; format: in vivo; conditions: doxycycline-induced knockdown; xenografts in nude mice; FIG. 21A-B
From the text: FIG. 21A-B. Evaluation of the effect of doxycycline-inducible shRNA targeting topoisomerase I in tumor xenografts generated from (A) non-stem MCF7 cells or (B) Oct3/4-GFP(+) MCF7 CSC cells.
as §5

CCn1cnc2c(Nc3cccc(Cl)c3)nc(N[C@@H]3CCCC[C@@H]3N)nc21.Cl (relative stereo) [CGP74514A, N2-(cis-2-aminocyclohexyl)-N6-(3-chlorophenyl)-9-ethyl-9H-purine-2,6-diamine hydrochloride]
selectivity for Oct3/4-GFP(+) MCF7 cells in initial screening [1]: potentially selective agents | selective inhibition of Oct3/4-GFP+ MCF cells (Oct3/4-GFP+ MCF7 cells): Selective inhibition

Cl.NCC1OC(C23CC4CC(CC(C4)C2)C3)Cc2c1ccc(O)c2O (stereo not shown) [A77636, 3-(1′-adamantyl)-1-aminomethyl-3,4-dihydro-5,6-dihydroxy-1H-2-benzopyran hydrochloride]
selectivity for Oct3/4-GFP(+) MCF7 cells in initial screening [1]: potentially selective agents | selective inhibition of Oct3/4-GFP+ MCF cells (Oct3/4-GFP+ MCF7 cells): Selective inhibition | selective inhibition of growth of CSCs [2]: selectively inhibited growth of CSCs

O=C1C=C(NCCN2CCOCC2)C(=O)c2ncccc21 [JUN1111]
CSC-selective inhibitory activity [3]: CSC-selective inhibitory activity

NC(=S)N/N=C/c1ccc([N+](=O)[O-])s1 [NSC725]
CSC-selective inhibitory activity [4]: CSC-selective inhibitory activity | CSC-selective inhibitory activity [5]: CSC-selective activity

Nc1nc(N)c2[nH]cnc2n1 [NSC743]
CSC-selective inhibitory activity [5]: CSC-selective activity

COC(=O)[C@H]1[C@H]2C[C@@H]3c4[nH]c5cc(OC)ccc5c4CCN3C[C@H]2C[C@@H](OC(=O)c2cc(OC)c(OC)c(OC)c2)[C@@H]1OC [Reserpine]
reduction of side population (SP) fractions [6]: > 70%

CC(=O)c1c(O)c(C)c(O)c(Cc2c(O)c3c(c(C(=O)/C=C/c4ccccc4)c2O)OC(C)(C)C=C3)c1O [Rottlerin, (Z)-1-[6-[(3-acetyl-2,4,6-trihydroxy-5-methylphenyl)methyl]-5,7-dihydroxy-2,2-dimethylchromen-8-yl]-3-phenylpro-2-en-1-one]
selectivity for Oct3/4-GFP(+) MCF7 cells in initial screening [1]: potentially selective agents | selective inhibition of Oct3/4-GFP+ MCF cells (Oct3/4-GFP+ MCF7 cells): Selective inhibition | selective inhibition of growth of CSCs [2]: selectively inhibited growth of CSCs

CC(=O)O[C@H]1C(=O)[C@@]2(C)[C@H]([C@H](OC(=O)c3ccccc3)[C@]3(O)C[C@H](OC(=O)[C@H](O)[C@@H](NC(=O)c4ccccc4)c4ccccc4)C(C)=C1C3(C)C)[C@]1(OC(C)=O)CO[C@@H]1C[C@@H]2O [taxol]
sensitivity of Oct3/4-GFP+MCF7 cells relative to MCF7 cells [7]: significantly more sensitive

CC1(C)CCC2=C(O1)c1ccccc1C(=O)C2=O [β-lapachone]
selective inhibition of growth of CSCs [2]: selectively inhibited growth of CSCs

B1: shRNA: doxycycline-inducible small hairpin RNA homologous to the topoisomerase I gene, SEQ ID NO:10, pTRIPZ vector (nucleic acid)
chain: TGCTGTTGACAGTGAGCGCGCTGATTATAAACCTAAGAAATAGTGAAGCCACAGATGTATTTCTTAGGTTTATAATCAGCATGCCTACTGCCTCGGA
topoisomerase I mRNA and protein expression (topoisomerase I): successfully knocked-down mRNA and protein expression | effect of knockdown on CSCs relative to non-stem cells (viable cells) [8]: more profound on CSCs relative to their non-stem cell counterparts | reduction in tumor size, CSC-generated vs non-stem tumors [9]: proportionally greater for the CSC-generated tumors | tumor size [9]: decreased the size of tumors resulting from both non-stem and CSC MCF7 cells
